Results from ChEMBL document CHEMBL5724696, “Autophagy assay results for EUbOPEN Chemogenomics Library” (2024).
Where “and” joins values, the source holds several entries; their conditions need not be identical. Identical values can stand only once.

How the values were obtained:
U2OS [1] = assay: (§1) Here: values are normalized to the positive (DMSO; basel flux = defined as 100% suppression) and negative (250nM Torin1; mTOR inhibitor; maximal inducer of autophagy defined as 0% suppression) control compounds and represented as % of ER-phagy suppression. […] The impact of autophagy induction on cells is complex and depends on the affected target. […] Of note, treatment concentrations may be sub-optimal for specific compounds, leading to false negative annotations.; format: functional, Homo sapiens; details: Compound Concentration 1 uM, Culturing Media DMEM, 1 % Penicillin/Streptomycin, 10% Fetal bovin serum Add-On: blasticidin, Screening Media Control DMEM, 10% Fetal bovin serum Add-On: 1 µg/ml Doxycyclin, Screening Media Samples DMEM
U2OS [2] = assay: as §1; format: functional, Homo sapiens; details: Compound Concentration 1 uM, Culturing Media DMEM, 1 % Penicillin/Streptomycin, 10% Fetal bovin serum Add-On: blasticidin, Screening Media Control DMEM, 10% Fetal bovin serum Add-On: 1 µg/ml Doxycyclin, Screening Media Samples DMEM; remark: listed apart in the source
[3] = Timepoint 12 hours, 10% Fetal bovin serum Add-On: 1 µg/ml Doxycyclin 250nM Torin1
[4] = Timepoint 24 hours, 10% Fetal bovin serum Add-On: 1 µg/ml Doxycyclin 250nM Torin1
[5] = Timepoint 36 hours, 10% Fetal bovin serum Add-On: 1 µg/ml Doxycyclin 250nM Torin1
[6] = Timepoint 54 hours, 10% Fetal bovin serum Add-On: 1 µg/ml Doxycyclin 250nM Torin1
[7] = Timepoint 60 hours, 10% Fetal bovin serum Add-On: 1 µg/ml Doxycyclin 250nM Torin1
[8] = Timepoint 12 hours, 10% Fetal bovin serum Add-On: 1 µg/ml Doxycyclin 250nM Torin1, 12 h, 1 µM
[9] = Timepoint 24 hours, 10% Fetal bovin serum Add-On: 1 µg/ml Doxycyclin 250nM Torin1, 24 h, 1 µM
[10] = Timepoint 36 hours, 10% Fetal bovin serum Add-On: 1 µg/ml Doxycyclin 250nM Torin1, 36 h, 1 µM
[11] = Timepoint 60 hours, 10% Fetal bovin serum Add-On: 1 µg/ml Doxycyclin 250nM Torin1, 60 h, 1 µM

SMILES | ER-phagy suppression (U2OS [1]; [3]) [%] | ER-phagy suppression (U2OS [1]; [4]) [%] | ER-phagy suppression (U2OS [1]; [5]) [%] | ER-phagy suppression (U2OS [1]; [6]) [%] | ER-phagy suppression (U2OS [2]; [3]) [%] | ER-phagy suppression (U2OS [2]; [4]) [%] | ER-phagy suppression (U2OS [2]; [5]) [%] | ER-phagy suppression (U2OS [2]; [7]) [%] | ER-phagy suppression (U2OS [1]; [8]) | ER-phagy suppression (U2OS [1]; [9]) | ER-phagy suppression (U2OS [1]; [10]) | ER-phagy suppression (U2OS [1]; Timepoint 54 hours, 10% Fetal bovin serum Add-On: 1 µg/ml Doxycyclin 250nM Torin1, 54 h, 1 µM) | ER-phagy suppression (U2OS [2]; [8]) | ER-phagy suppression (U2OS [2]; [9]) | ER-phagy suppression (U2OS [2]; [10]) | ER-phagy suppression (U2OS [2]; [11])
CN(C)C(=O)N1CC[C@H](NC2=Nc3cc(F)ccc3N(CC(F)F)c3ccc(Cl)cc32)C1 | -18.0128 | -30.8641 | -36.8246 | -25.6155 | -14.7963 | -22.2791 | -19.1413 | -31.4062 | – | – | – | – | – | – | – | –
CCOc1cc(N2CCC(O)CC2)ccc1Nc1ncc2c(n1)N(C)c1ccccc1C(=O)N2C | -49.4363 | -63.2462 | -50.7543 | -40.8997 | 41.1735 | 16.7232 | 17.4074 | 10.8345 | – | – | – | – | – | – | – | –
COc1cc(Nc2ncc3c(n2)-c2ccc(Cl)cc2C(c2c(F)cccc2OC)=NC3)ccc1C(=O)O [ALISERTIB] | – | – | – | – | – | – | – | – | 17.2717% and 22.6318% | 12.1028% and 15.999% | -4.94% and 1.582% | 5.417% and 8.819% | 32.5772% and 15.1943% | 46.3416% and 31.463% | 37.5206% and 17.8935% | 42.3508% and 18.9115%
CCc1cncnc1N1CCN(Cc2nc3cc(C(F)(F)F)ccc3[nH]2)CC1 | -12.878 | -26.39 | -24.8445 | -23.0115 | -3.169 | -14.0511 | -20.9455 | -35.5971 | – | – | – | – | – | – | – | –
CN1CCN(C(=O)C(C)(C)c2ccc(C(=O)Nc3cn4cc(-c5ccncc5)ccc4n3)cc2)CC1 [T3-CLK] | 58.6484 | 70.9328 | 70.8309 | 76.3625 | 46.4649 | 79.2605 | 82.4738 | 83.9667 | – | – | – | – | – | – | – | –
CNC(=O)c1ccc(Nc2ncc(C(F)(F)F)c(NCc3nccnc3N(C)S(C)(=O)=O)n2)cc1 [DEFACTINIB] | – | – | – | – | – | – | – | – | 6.334% and 17.6982% | -6.042% and 9.811% | -8.211% and 10.8271% | – | -10.5841% and -8.687% | – | -22.8017% and 1.862% | -7.812% and 1.51%
CN(C)C(=O)Cn1cc(-c2ccc(-c3nnc4ccccn34)cc2)cn1 | -13.7824 | -23.4109 | -24.5481 | -15.5458 | -17.2141 | -21.3564 | -13.477 | -20.2221 | – | – | – | – | – | – | – | –
Cc1cnc(-c2cc(Cl)ccc2F)cc1-n1c(=O)n(CC(N)=O)c2ccccc21 [Al11] | -9.163 | -26.2915 | -35.1418 | -38.7834 | -12.5733 | -18.3016 | -21.1778 | -20.9921 | – | – | – | – | – | – | – | –
Cc1ccc(C(=O)Nc2cccc(C(F)(F)F)c2)cc1Nc1nc(-c2cccnc2)nc2c1cnn2C | 20.046 | 2.016 | -6.3 | -2.2204 | 26.4951 | 22.3835 | 22.4378 | 22.9955 | – | – | – | – | – | – | – | –
O=C(O)CSc1ncnc2sc(-c3cc4ccccc4s3)cc12 | -2.052 | -18.7288 | -21.1701 | -12.8701 | -22.3534 | -5.037 | -13.712 | -10.482 | – | – | – | – | – | – | – | –
Cc1cnc(-c2cnc(NCCNc3ccc(C#N)cn3)nc2-c2ccc(Cl)cc2Cl)[nH]1 [LADUVIGLUSIB] | 16.4928 | 17.774 | 23.5271 | 35.0421 | 40.8879 | 29.9628 | 22.9027 | 26.8731 | – | – | – | – | – | – | – | –
Nc1c(C(=O)NCc2ccc(C(=O)NCCCC3CCCCC3)cc2)cnn1-c1ccccc1 [SR-318] | 18.9481 | 11.0125 | 12.9949 | 20.6922 | -4.749 | -10.9122 | -18.8313 | -35.2993 | – | – | – | – | – | – | – | –
Cn1cc(-c2ccc3nnc(Sc4ccc5ncccc5c4)n3n2)cn1 [SGX-523] | -11.2391 | -26.6862 | -36.424 | -40.7928 | 6.2538 | 0.9511 | 4.373 | 11.7711 | – | – | – | – | – | – | – | –
CN(C)C(=O)Cn1cc(-c2ccc(-c3cncc4ccccc34)cc2)cn1 | 5.324 | 37.0971 | 57.9552 | 74.4134 | -8.903 | 10.8163 | 25.7126 | 36.3142 | – | – | – | – | – | – | – | –
O=C(NCc1cccc(O)c1)Nc1nc(-c2ccncc2)cs1 | -63.2417 | -37.1145 | 6.149 | 46.7933 | 38.3546 | 42.4931 | 43.3897 | 45.9293 | – | – | – | – | – | – | – | –
CN(c1ncccc1CNc1nc(Nc2ccc3c(c2)CC(=O)N3)ncc1C(F)(F)F)S(C)(=O)=O.O=S(=O)(O)c1ccccc1 | 6.672 | -24.1053 | -34.2095 | -20.8605 | -10.0797 | -6.87 | 0.4518 | 0.1589 | – | – | – | – | – | – | – | –
C[C@@H]1CN(c2cc(-c3n[nH]c4ccc(OC5(C)CC5)cc34)ncn2)C[C@H](C)O1 [MLi-2] | 2.807 | -15.8401 | -22.331 | -20.0591 | 9.792 | 2.978 | -16.0797 | -15.9794 | – | – | – | – | – | – | – | –
NC(=O)c1ccc(N(C(N)=O)c2c(F)cccc2F)nc1-c1ccc(F)cc1F [VX-702] | 0.2881 | -13.3426 | -11.8024 | 0.1703 | 31.8026 | 34.6886 | 33.7769 | 30.7144 | – | – | – | – | – | – | – | –
Cc1cn(-c2cc(NC(=O)c3ccc4c(c3)CN(c3cncnc3)C[C@@H]4C)cc(C(F)(F)F)c2)cn1 | -11.2753 | -32.01 | -29.9662 | -28.2988 | -5.176 | -7.191 | -10.2809 | -23.2702 | – | – | – | – | – | – | – | –
